Experimental data published in ChEMBL document CHEMBL1201862, “PubChem BioAssay data set” (2004).
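In this assay, cells in 96-well plates receive the compound at five concentrations for 48 hours. Endpoints are linearly interpolated between the surrounding concentrations. At the GI50, growth is halved.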 The source made the active and inactive calls. No stated cut-off is given here; in the data, active = GI50 up to about 1.1 µM and inactive = higher.

Key:
Assay in all cases: NCI-60 cell line screen, 48 h
TK-10 = test system: TK-10
HCT-15 = test system: HCT-15
IGROV-1 = test system: IGROV-1
SF-539 = test system: SF-539
NCI-H460 = test system: NCI-H460
OVCAR-5 = test system: OVCAR-5
NCI/ADR-RES = test system: NCI/ADR-RES
PC-3 = test system: PC-3
NCI-H522 = test system: NCI-H522
COLO 205 = test system: COLO 205
UO-31 = test system: UO-31
UACC-257 = test system: UACC-257
OVCAR-4 = test system: OVCAR-4
OVCAR-3 = test system: OVCAR-3
HCC 2998 = test system: HCC 2998
SF-295 = test system: SF-295
NCI-H23 = test system: NCI-H23
DU-145 = test system: DU-145
SW-620 = test system: SW-620
OVCAR-8 = test system: OVCAR-8
CAKI-1 = test system: CAKI-1
ACHN = test system: ACHN
MDA-N = test system: MDA-N
SK-MEL-5 = test system: SK-MEL-5
M14 = test system: M14
HT-29 = test system: HT-29
SF-268 = test system: SF-268
MDA-MB-231 = test system: MDA-MB-231
SNB-75 = test system: SNB-75
HOP-92 = test system: HOP-92
SK-OV-3 = test system: SK-OV-3
786-0 = test system: 786-0
SN12C = test system: SN12C
HOP-62 = test system: HOP-62
UACC-62 = test system: UACC-62
LOX IMVI = test system: LOX IMVI
HL-60 = test system: HL-60
A549 = test system: A549
CCRF-CEM = test system: CCRF-CEM
MOLT-4 = test system: MOLT-4
EKVX = test system: EKVX
SK-MEL-2 = test system: SK-MEL-2
KM12 = test system: KM12
BT-549 = test system: BT-549
SK-MEL-28 = test system: SK-MEL-28
RXF 393 = test system: RXF 393
SNB-19 = test system: SNB-19
MDA-MB-435 = test system: MDA-MB-435
MCF7 = test system: MCF7
HCT-116 = test system: HCT-116
Hs-578T = test system: Hs-578T
NCI-H226 = test system: NCI-H226
U-251 = test system: U-251
A498 = test system: A498
Malme-3M = test system: Malme-3M
K562 = test system: K562
T47D = test system: T47D
RPMI-8226 = test system: RPMI-8226
SR = test system: SR

In the case of Cc1ccc([N+](=O)[O-])cc1NC(=O)C(=O)C1CCC2=C(Sc3ccccc3N2)C1=O (centres undefined), the GI50 (TK-10) is reported as > 100 µM (inactive), the GI50 (HCT-15) is reported as > 100 µM and the GI50 (IGROV-1) is reported as > 100 µM (inactive). For the same molecule, the GI50 (SF-539) was 37.5 µM (inactive), the GI50 (NCI-H460) was > 100 µM (inactive) and the GI50 (OVCAR-5) was > 100 µM (inactive). For the same molecule, the GI50 (NCI/ADR-RES) was > 100 µM (inactive), the GI50 (PC-3) was 53 µM (inactive) and the GI50 (NCI-H522) was > 100 µM (inactive). The GI50 (COLO 205) was > 100 µM (inactive), the GI50 (UO-31) was 60 µM (inactive) and the GI50 (UACC-257) was > 100 µM (inactive). The GI50 (OVCAR-4) was > 100 µM (inactive), the GI50 (OVCAR-3) was 23 µM (inactive) and the GI50 (HCC 2998) was > 100 µM (inactive). For the same molecule, the GI50 (SF-295) was > 100 µM (inactive), the GI50 (NCI-H23) was > 100 µM (inactive) and the GI50 (DU-145) was > 100 µM (inactive). The GI50 (SW-620) was > 100 µM (inactive), the GI50 (OVCAR-8) was 66.8 µM (inactive) and the GI50 (CAKI-1) was 52 µM (inactive). For the same molecule, the GI50 (ACHN) was > 100 µM (inactive), the GI50 (MDA-N) was > 100 µM (inactive) and the GI50 (SK-MEL-5) was > 100 µM (inactive). For the same molecule, the GI50 (M14) was > 100 µM (inactive), the GI50 (HT-29) was > 100 µM (inactive) and the GI50 (SF-268) was > 100 µM (inactive). For the same molecule, the GI50 (MDA-MB-231) was > 100 µM (inactive), the GI50 (SNB-75) was > 100 µM (inactive) and the GI50 (HOP-92) was > 100 µM (inactive). The GI50 (SK-OV-3) was > 100 µM (inactive), the GI50 (786-0) was > 100 µM (inactive) and the GI50 (SN12C) was > 100 µM (inactive). The GI50 (HOP-62) was > 100 µM (inactive), the GI50 (UACC-62) was > 100 µM (inactive) and the GI50 (LOX IMVI) was > 100 µM (inactive). The GI50 (HL-60) was > 100 µM (inactive), the GI50 (A549) was > 100 µM (inactive) and the GI50 (CCRF-CEM) was 63.4 µM (inactive). For the same molecule, the GI50 (MOLT-4) was 43.7 µM (inactive), the GI50 (EKVX) was > 100 µM (inactive) and the GI50 (SK-MEL-2) was > 100 µM (inactive). The GI50 (KM12) was > 100 µM (inactive), the GI50 (BT-549) was > 100 µM (inactive) and the GI50 (SK-MEL-28) was > 100 µM (inactive). The GI50 (RXF 393) was > 100 µM (inactive), the GI50 (SNB-19) was > 100 µM (inactive) and the GI50 (MDA-MB-435) was > 100 µM (inactive). The GI50 (MCF7) was > 100 µM (inactive), the GI50 (HCT-116) was 68.2 µM (inactive) and the GI50 (Hs-578T) was > 100 µM (inactive). For the same molecule, the GI50 (NCI-H226) was 58.7 µM (inactive) and the GI50 (U-251) was > 100 µM (inactive).
With COc1cccc(N2CCc3c(C)c(C#N)c4nc5ccccc5n4c32)c1 the GI50 (TK-10) was > 100 µM (inactive), the GI50 (HCT-15) was > 100 µM and the GI50 (IGROV-1) was > 100 µM (inactive). For the same molecule, the GI50 (SF-539) was 45.7 µM (inactive), the GI50 (NCI-H460) was > 100 µM (inactive) and the GI50 (OVCAR-5) was > 100 µM (inactive). For the same molecule, the GI50 (NCI/ADR-RES) was > 100 µM (inactive), the GI50 (PC-3) was > 100 µM (inactive) and the GI50 (NCI-H522) was 15.3 µM (inactive). For the same molecule, the GI50 (COLO 205) was > 100 µM (inactive), the GI50 (UO-31) was > 100 µM (inactive) and the GI50 (A498) was > 100 µM (inactive). For the same molecule, the GI50 (Malme-3M) was > 100 µM (inactive), the GI50 (UACC-257) was > 100 µM (inactive) and the GI50 (OVCAR-4) was > 100 µM (inactive). For the same molecule, the GI50 (OVCAR-3) was > 100 µM (inactive), the GI50 (HCC 2998) was > 100 µM (inactive) and the GI50 (SF-295) was > 100 µM (inactive). For the same molecule, the GI50 (NCI-H23) was > 100 µM (inactive), the GI50 (DU-145) was > 100 µM (inactive) and the GI50 (SW-620) was > 100 µM (inactive). The GI50 (OVCAR-8) was 41.4 µM (inactive), the GI50 (ACHN) was > 100 µM (inactive) and the GI50 (MDA-N) was > 100 µM (inactive). For the same molecule, the GI50 (SK-MEL-5) was > 100 µM (inactive), the GI50 (M14) was > 100 µM (inactive) and the GI50 (HT-29) was > 100 µM (inactive). The GI50 (SF-268) was 43.7 µM (inactive), the GI50 (MDA-MB-231) was 12.2 µM (inactive) and the GI50 (SNB-75) was 41.5 µM (inactive). The GI50 (HOP-92) was 22.1 µM (inactive), the GI50 (SK-OV-3) was 48.1 µM (inactive) and the GI50 (786-0) was 58.3 µM (inactive). The GI50 (SN12C) was > 100 µM (inactive), the GI50 (HOP-62) was > 100 µM (inactive) and the GI50 (UACC-62) was > 100 µM (inactive). The GI50 (LOX IMVI) was > 100 µM (inactive), the GI50 (HL-60) was > 100 µM (inactive) and the GI50 (A549) was > 100 µM (inactive). The GI50 (CCRF-CEM) was > 100 µM (inactive), the GI50 (SK-MEL-2) was 94.8 µM (inactive) and the GI50 (BT-549) was > 100 µM (inactive). For the same molecule, the GI50 (SK-MEL-28) was > 100 µM (inactive), the GI50 (RXF 393) was 45.1 µM (inactive) and the GI50 (SNB-19) was 39.3 µM (inactive). For the same molecule, the GI50 (MDA-MB-435) was > 100 µM (inactive), the GI50 (MCF7) was > 100 µM (inactive) and the GI50 (K562) was > 100 µM (inactive). The GI50 (HCT-116) was > 100 µM (inactive), the GI50 (Hs-578T) was 16.2 µM (inactive) and the GI50 (NCI-H226) was > 100 µM (inactive). The GI50 (U-251) was 53.6 µM (inactive).
With CCNC1(c2cccc(C)c2)OC(C)(C)c2cccc3cccc1c23 (centres undefined) the GI50 (TK-10) was 17.3 µM (inactive), the GI50 (HCT-15) was 19.6 µM and the GI50 (IGROV-1) was 17.8 µM (inactive). The GI50 (SF-539) was 17.9 µM (inactive), the GI50 (NCI-H460) was 15.2 µM (inactive) and the GI50 (OVCAR-5) was 19.1 µM (inactive). For the same molecule, the GI50 (NCI/ADR-RES) was 19.8 µM (inactive), the GI50 (NCI-H522) was 15.1 µM (inactive) and the GI50 (COLO 205) was 16.1 µM (inactive). The GI50 (UO-31) was 16.1 µM (inactive), the GI50 (A498) was 17.5 µM (inactive) and the GI50 (Malme-3M) was 16.3 µM (inactive). For the same molecule, the GI50 (UACC-257) was 18.8 µM (inactive), the GI50 (OVCAR-4) was 16 µM (inactive) and the GI50 (OVCAR-3) was 17.3 µM (inactive). For the same molecule, the GI50 (SF-295) was 17.9 µM (inactive), the GI50 (NCI-H23) was 17.9 µM (inactive) and the GI50 (DU-145) was 17.7 µM (inactive). For the same molecule, the GI50 (SW-620) was 17.8 µM (inactive), the GI50 (OVCAR-8) was 18.4 µM (inactive) and the GI50 (CAKI-1) was 19.8 µM (inactive). For the same molecule, the GI50 (ACHN) was 17 µM (inactive), the GI50 (MDA-N) was 19.3 µM (inactive) and the GI50 (SK-MEL-5) was 19.1 µM (inactive). For the same molecule, the GI50 (M14) was 17.8 µM (inactive), the GI50 (T47D) was 26.9 µM (inactive) and the GI50 (HT-29) was 14 µM (inactive). The GI50 (RPMI-8226) was 0.0321 µM (active), the GI50 (SF-268) was 16 µM (inactive) and the GI50 (SNB-75) was 15 µM (inactive). For the same molecule, the GI50 (HOP-92) was 3.83 µM (inactive), the GI50 (SK-OV-3) was 17.7 µM (inactive) and the GI50 (786-0) was 18.8 µM (inactive). The GI50 (SN12C) was 19 µM (inactive), the GI50 (HOP-62) was 21 µM (inactive) and the GI50 (UACC-62) was 15.6 µM (inactive). The GI50 (LOX IMVI) was 17.3 µM (inactive), the GI50 (SR) was 5.16 µM (inactive) and the GI50 (HL-60) was 0.646 µM (active). For the same molecule, the GI50 (A549) was 15.6 µM (inactive), the GI50 (CCRF-CEM) was 2.5 µM (inactive) and the GI50 (EKVX) was 18.8 µM (inactive). For the same molecule, the GI50 (SK-MEL-2) was 15.7 µM (inactive), the GI50 (KM12) was 21.9 µM (inactive) and the GI50 (BT-549) was 18.9 µM (inactive). For the same molecule, the GI50 (RXF 393) was 16.8 µM (inactive), the GI50 (SNB-19) was 18.2 µM (inactive) and the GI50 (MDA-MB-435) was 16.9 µM (inactive). The GI50 (MCF7) was 17.7 µM (inactive), the GI50 (K562) was 11.7 µM (inactive) and the GI50 (HCT-116) was 27 µM (inactive). For the same molecule, the GI50 (Hs-578T) was 20.1 µM (inactive), the GI50 (NCI-H226) was 19.9 µM (inactive) and the GI50 (U-251) was 16.9 µM (inactive).
